In test [1] the target is T1, acetylcholine esterase (AChE) (Mus musculus, UniProt P21836).
T1 construct: brain homogenate and serum of mouse were used as choline esterase enzyme sources; from tissue; host or cells: mouse brain homogenate
T1 sequence (P21836 32-614): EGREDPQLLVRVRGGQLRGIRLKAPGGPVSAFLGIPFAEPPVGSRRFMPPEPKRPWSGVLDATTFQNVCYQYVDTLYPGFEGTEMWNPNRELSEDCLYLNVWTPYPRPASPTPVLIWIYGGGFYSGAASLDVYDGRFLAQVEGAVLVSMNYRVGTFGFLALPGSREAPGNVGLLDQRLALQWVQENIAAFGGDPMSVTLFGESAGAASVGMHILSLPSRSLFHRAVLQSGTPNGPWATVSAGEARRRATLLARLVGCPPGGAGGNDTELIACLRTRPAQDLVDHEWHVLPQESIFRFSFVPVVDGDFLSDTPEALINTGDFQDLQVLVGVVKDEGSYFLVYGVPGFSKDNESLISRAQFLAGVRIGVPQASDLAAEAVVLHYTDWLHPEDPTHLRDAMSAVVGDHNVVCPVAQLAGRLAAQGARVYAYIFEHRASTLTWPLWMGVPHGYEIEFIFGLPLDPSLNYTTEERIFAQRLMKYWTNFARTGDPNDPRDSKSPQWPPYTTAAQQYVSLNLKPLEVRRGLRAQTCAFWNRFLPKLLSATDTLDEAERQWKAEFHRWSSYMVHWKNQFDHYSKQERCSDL
As to the kind of experiment: In vitro assay for choline esterase inhibition (Ellman method), acetylthiocholine substrate, mouse brain homogenate. It is filed as biochemical. The protocol: (§1) For measurement of esterase activity, brain homogenate and serum of mouse were used as choline esterase enzyme sources, and the method of Ellman et. al (Biochemical pharmacology 7: 88-95 1961) were referred. Compound of each example were diluted in dimethylsulfoxide.
(§2) In detail, acetylthiocholine or butyrylthiocholine as substrates, test compounds, and DNTB [[…]] were added to the mouse brain homogenate or serum, respectively.
(§3) After incubation, thiocholine was produced by enzyme reaction in the mixture, and then, the yellow product was formed by the reaction of thiocholine and DTNB. The activity of acetylcholine esterase (AChE) or butyrylcholine esterase (BuChE) was evaluated by determination of absorbance at 415 nm. […] And the selectivity for BuChE inhibition of each compound was calculated by the ratio: IC50 (AchE)/IC50 (BuChE).
On the technique in general: In Ellman's method for cholinesterases, released thiocholine reacts with DTNB.

In test [2] the target is T2, butyrylcholine esterase (BuChE) (Mus musculus, UniProt Q03311).
T2 construct: brain homogenate and serum of mouse were used as choline esterase enzyme sources; from tissue; host or cells: mouse serum
T2 sequence (Q03311 30-603): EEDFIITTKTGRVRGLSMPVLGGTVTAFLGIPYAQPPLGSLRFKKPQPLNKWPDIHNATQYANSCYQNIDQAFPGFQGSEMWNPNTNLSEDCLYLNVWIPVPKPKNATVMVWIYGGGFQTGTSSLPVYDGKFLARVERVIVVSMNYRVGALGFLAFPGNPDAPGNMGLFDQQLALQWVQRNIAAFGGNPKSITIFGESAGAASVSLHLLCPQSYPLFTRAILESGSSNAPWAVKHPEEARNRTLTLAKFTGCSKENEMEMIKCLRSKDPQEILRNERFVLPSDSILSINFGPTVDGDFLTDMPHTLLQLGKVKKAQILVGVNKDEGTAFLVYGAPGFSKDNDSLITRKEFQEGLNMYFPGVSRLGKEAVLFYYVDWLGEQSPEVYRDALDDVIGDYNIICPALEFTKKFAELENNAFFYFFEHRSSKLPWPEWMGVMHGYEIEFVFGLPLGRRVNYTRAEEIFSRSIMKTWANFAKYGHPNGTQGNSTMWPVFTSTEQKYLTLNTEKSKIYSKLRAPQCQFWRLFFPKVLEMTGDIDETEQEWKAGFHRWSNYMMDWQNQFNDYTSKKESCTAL
As to the kind of experiment: In vitro assay for choline esterase inhibition (Ellman method), butyrylthiocholine substrate, mouse serum. It is filed as biochemical. To be noted: for Ratio AChE/BuChE: selectivity for BuChE inhibition: IC50 (AchE)/IC50 (BuChE); for selectivity to butyrylcholinesterase (BuChE versus AChE inhibitory activity), in words: summary of Tables 1-3. The protocol: as §1, §2, §3

[3] abbreviates: mouse brain homogenate, acetylthiocholine, absorbance at 415 nm, read-out: AChE inhibitory activity IC50.
[4] abbreviates: mouse serum, butyrylthiocholine, absorbance at 415 nm, read-out: BuChE inhibitory activity IC50.

As a reminder, the IC50 is the midpoint of a concentration-inhibition curve.

Read-outs that look alike come from different tables or passages of the source.

As to `O=C(Nc1ccc2c(c1)OCO2)Oc1ccc2c(c1)CCN2Cc1ccccc1` [Example 12, 1-benzylindolin-5-yl 5-benzo[d][1,3]dioxolylcarbamate], the 50% inhibitory concentration (IC50) came to 11 µM in test [1] (setting [3]) and 290 nM in test [2] (setting [4]). The “Ratio AChE/BuChE” value in test [2] amounted to 38.

As for `CN(CC1CCCCC1)C(=O)Oc1ccc2c(c1)C(C)(C)CN2Cc1ccccc1` [Example 216, O-(1-benzyl-3,3-dimethylindolin-5-yl)-N-(cyclohexylmethyl)-N-methylcarbamate], the IC50 in test [1] was found to be 54 µM. In test [2], the concentration for half-maximal inhibition (IC50) amounted to 2.4 nM; the “Ratio AChE/BuChE” value is listed as 23000; the “selectivity to butyrylcholinesterase (BuChE versus AChE inhibitory activity), in words” value is “much higher”.

Take `CC(C)c1ccc(NC(=O)Oc2ccc3c(c2)CCN3Cc2ccccc2O)cc1` [Example 66, 1-(2-hydroxybenzyl)indolin-5-yl 4-isopropylphenylcarbamate]: the 50% inhibitory concentration (IC50) in test [1] was over 100 µM; in test [2], 570 nM. Besides, the “Ratio AChE/BuChE” value in test [2] is listed as over 180.

Consider `CN(C)CCCNC(=O)Oc1ccc2c(c1)CCN2Cc1ccccc1` [Example 137, 1-benzylindolin-5-yl 3-(dimethylamino)propylcarbamate], for which the IC50 in test [1] is over 100 µM. In test [2], it took 180 nM to reach half-maximal inhibition (IC50) and the “Ratio AChE/BuChE” value is over 560.

In test [1], `CN(CC1CCOCC1)C(=O)Oc1ccc2c(c1)C(C)(C)CN2Cc1ccccn1` [Example 218, N-methyl-O-[1-(2-pyridylmethyl)-3,3-dimethylindolin-5-yl]-N-(4-tetrahydropyranylmethyl)carbamate] registered a half-inhibitory concentration (IC50) of 8.5 µM. For the same molecule, in test [2], half-maximal inhibition (IC50) required 0.66 nM; the “Ratio AChE/BuChE” value is reported as 13000; the “selectivity to butyrylcholinesterase (BuChE versus AChE inhibitory activity), in words” value is “much higher”.

For `CCCCCCNC(=O)Oc1ccc2c(c1)CCN2Cc1ccccn1` [Example 147, 1-(2-pyridylmethyl)indolin-5-yl n-hexylcarbamate], the values for the half-inhibitory concentration (IC50) in test [1] (setting [3]) and in test [2] (setting [4]) were 0.25 µM and 11 nM, respectively. Besides, the “Ratio AChE/BuChE” value in test [2] is on record as 23.

On to `Cc1ccc(CCNC(=O)Oc2ccc3c(c2)CCN3Cc2ccccc2)cc1` [Example 91, 1-benzylindolin-5-yl-4-methylphenethylcarbamate], for which, in test [1] (setting [3]), the IC50 was over 100 µM. For the same molecule, the IC50 in test [2] (setting [4]) was 59 nM. Further, in test [2], the “Ratio AChE/BuChE” value is recorded as over 1700 and the “selectivity to butyrylcholinesterase (BuChE versus AChE inhibitory activity), in words” value is recorded as “much higher”.

On to `CCNC(=O)Oc1ccc2c(c1)CCN2Cc1ccccc1` [Example 57, 1-benzylindolin-5-yl ethylcarbamate], for which the half-inhibitory concentration (IC50) in test [1] (setting [3]) is 69 µM. Also, the IC50 in test [2] (setting [4]) was 34 nM. In test [2], the “Ratio AChE/BuChE” value amounted to 2000 and the “selectivity to butyrylcholinesterase (BuChE versus AChE inhibitory activity), in words” value is given as “much higher”.

As for `COc1cc(CN2CCc3cc(OC(=O)Nc4ccc(C(C)C)cc4)ccc32)ccc1O` [Example 67, 1-(4-hydroxy-3-methoxybenzyl)indolin-5-yl-4-isopropylphenylcarbamate], the 50% inhibitory concentration (IC50) in test [1] (setting [3]) was over 100 µM; in test [2] (setting [4]) it was 1300 nM. In addition, in test [2], the “Ratio AChE/BuChE” value is reported as over 77.

In test [1], `CCCCCC(C)NC(=O)Oc1ccc2c(c1)CCN2Cc1ccccc1` (stereo not drawn) [Example 50, 1-benzylindolin-5-yl 2-heptylcarbamate] showed an IC50 of over 100 µM. Besides, in test [2], it took 53 nM to reach half-maximal inhibition (IC50); the “Ratio AChE/BuChE” value is listed as over 1900; the “selectivity to butyrylcholinesterase (BuChE versus AChE inhibitory activity), in words” value was “much higher”.

As for `O=C(Nc1ccc2c(c1)OCCO2)Oc1ccc2c(c1)CCN2Cc1ccccc1` [Example 11, 1-benzylindolin-5-yl 2,3-dihydro-1,4-benzodioxin-6-ylcarbamate], the IC50 in test [1] was over 100 µM; in test [2], 170 nM. In addition, the “Ratio AChE/BuChE” value in test [2] was over 590.

In test [1], `Cc1ccc(CCNC(=O)Oc2ccc3c(c2)CCN3Cc2ccccc2)c(C)c1` [Example 116, 1-benzylindolin-5-yl 2,4-dimethylphenethylcarbamate] yielded a half-maximal inhibitory concentration (IC50) of over 100 µM. In test [2], the IC50 was 45 nM; the “Ratio AChE/BuChE” value is listed as over 2200; the “selectivity to butyrylcholinesterase (BuChE versus AChE inhibitory activity), in words” value is listed as “much higher”.

Take `O=C(NCC1CCCCC1)Oc1ccc2c(c1)CCN2Cc1ccccn1` [Example 148, 1-(2-pyridylmethyl)indolin-5-yl cyclohexylmethylcarbamate]: the 50% inhibitory concentration (IC50) in test [1] (setting [3]) turned out to be 1.2 µM. Moreover, in test [2] (setting [4]), the IC50 was 2 nM. Moreover, in test [2], the “Ratio AChE/BuChE” value is recorded as 600 and the “selectivity to butyrylcholinesterase (BuChE versus AChE inhibitory activity), in words” value is “much higher”.

In turn, `Cc1ccc(NC(=O)Oc2ccc3c(c2)CCN3Cc2ccccc2)cc1C` [Example 113, 1-benzylindolin-5-yl 3,4-dimethylphenylcarbamate] showed a concentration for half-maximal inhibition (IC50) in test [1] of over 100 µM. Also, in test [2], it took 160 nM to reach half-maximal inhibition (IC50) and the “Ratio AChE/BuChE” value was over 630.

For `O=C(NCc1ccncc1)Oc1ccc2c(c1)CCN2Cc1ccccc1` [Example 103, 1-benzylindolin-5-yl 4-pyridylmethylcarbamate], the IC50 in test [1] (setting [3]) was 9.3 µM; in test [2] (setting [4]) it was 110 nM. The “Ratio AChE/BuChE” value in test [2] amounted to 85.

On to `COc1ccccc1CCNC(=O)Oc1ccc2c(c1)CCN2Cc1ccccc1` [Example 117, 1-benzylindolin-5-yl 2-methoxyphenethylcarbamate], for which the IC50 came to 7.9 µM in test [1] (setting [3]) and 24 nM in test [2] (setting [4]). Besides, the “Ratio AChE/BuChE” value in test [2] was determined as 330. Further, the “selectivity to butyrylcholinesterase (BuChE versus AChE inhibitory activity), in words” value in test [2] was “much higher”.

Take `O=C(NCCc1ccccc1)Oc1ccc2c(c1)CCN2Cc1ccccc1` [Example 16, 1-benzylindolin-5-yl phenethylcarbamate]: the IC50 in test [1] (setting [3]) came out at 9.8 µM. In addition, in test [2] (setting [4]), the half-maximal inhibitory concentration (IC50) was determined as 42 nM. In addition, in test [2], the “Ratio AChE/BuChE” value worked out at 230 and the “selectivity to butyrylcholinesterase (BuChE versus AChE inhibitory activity), in words” value was “much higher”.

As to `O=C(NCc1ccco1)Oc1ccc2c(c1)CCN2Cc1ccccc1` [Example 18, 1-benzylindolin-5-yl furfurylcarbamate], the IC50 came out at 1.8 µM in test [1] (setting [3]) and 38 nM in test [2] (setting [4]). In test [2], the “Ratio AChE/BuChE” value was 47.

For `CC(C)c1ccc(NC(=O)Oc2ccc3c(c2)CCN3CCc2ccccc2)cc1` [Example 3, 1-phenethylindolin-5-yl 4-isopropylphenylcarbamate], the figures for the IC50 in test [1] and in test [2] were over 100 µM and 1200 nM, respectively. The “Ratio AChE/BuChE” value in test [2] is given as over 83.

The molecule `O=C(NCC1CCCCC1)Oc1ccc2c(c1)CCN2Cc1ccccc1` [Example 34, 1-benzylindolin-5-yl cyclohexylmethylcarbamate] had a 50% inhibitory concentration (IC50) in test [1] of over 100 µM. In addition, in test [2], the concentration for half-maximal inhibition (IC50) was 3 nM; the “Ratio AChE/BuChE” value is over 33000; the “selectivity to butyrylcholinesterase (BuChE versus AChE inhibitory activity), in words” value is “much higher”.

Regarding `CN(C)C(=O)Oc1ccc2c(c1)CCN2Cc1ccccc1` [Example 221, N,N-dimethyl-O-(1-benzylindolin-5-yl)carbamate], the IC50 was 13 µM in test [1] and 170 nM in test [2]. In test [2], the “Ratio AChE/BuChE” value was determined as 76.

Take `C[C@H](NC(=O)Oc1ccc2c(c1)CCN2Cc1ccccc1)c1ccccc1` [Example 19, 1-benzylindolin-5-yl (S)-1-phenylethylcarbamate]: the IC50 in test [1] is over 100 µM. Besides, in test [2], the IC50 turned out to be 190 nM and the “Ratio AChE/BuChE” value was over 530.

Regarding `CN(CC1CCOCC1)C(=O)Oc1ccc2c(c1)C(C)(C)CN2Cc1ccncc1` [Example 220, N-methyl-O-[1-(4-pyridylmethyl)-3,3-dimethylindolin-5-yl]-N-(4-tetrahydropyranylmethyl)carbamate], in test [1], half-maximal inhibition (IC50) required 21 µM. For the same molecule, in test [2], the half-inhibitory concentration (IC50) came out at 1.9 nM; the “Ratio AChE/BuChE” value was determined as 11000; the “selectivity to butyrylcholinesterase (BuChE versus AChE inhibitory activity), in words” value was “much higher”.

Take `CCCCCCNC(=O)Oc1ccc2c(c1)CCN2Cc1ccccc1` [Example 17, 1-benzylindolin-5-yl n-hexylcarbamate]: the results for the concentration for half-maximal inhibition (IC50) in test [1] (setting [3]) and in test [2] (setting [4]) were 8 µM and 16 nM, respectively. In addition, in test [2], the “Ratio AChE/BuChE” value came to 500. Also, the “selectivity to butyrylcholinesterase (BuChE versus AChE inhibitory activity), in words” value in test [2] was “much higher”.

The values above are taken from patent US8686024B2, “Indoline derivatives” (priority 2009, dated 2014).
